Values of other authors as cited in US8278478B2, “Process for the synthesis of hydrochloride salt of N-fatty acylsubstituted amino acid ethyl esters” (priority 2009, dated 2012).

Details: at 20° C.

For `CCCCCCCCCCCC(=O)N[C@@H](CCCNC(=N)N)C(=O)OCC.Cl` [Ethyl lauroyl arginate, ethyl-Nα-lauroyl-L-arginate HCl], the solubility in water is listed as “greater than 247 g/kg”.
